Laboratory results taken from article PMC5500990 (European Journal of Medicinal Chemistry, 2017).
Where a SMILES comes first, the peptide text is derived from it. [ ]: non-standard residue; d: D form. dNMeF = CN[C@H](Cc1ccccc1)C(=O)O

How the values were obtained:
DMS79 cells [1] = test: Annexin V conjugate / SYTOX Blue flow cytometric analysis of apoptosis; type: cell-based, human; conditions: 24 h, n = 3
Method: The novel potent N^ind-butylated peptide, 16, and its unmodified version 1 [26] were incubated for 24 h with DMS79 cells and double stained using Annexin V Fluor® 555 (AnnV) conjugate and SYTOX® Blue (SyB) dead cell stain [29], [32]. The former stain binds to phosphatidyl serine (PS) residues that become exposed at the outer surface of the plasma membrane of cells undergoing apoptosis. DMS79 cell line was selected as a variant cell line model more resistant to chemotherapy since it is established from a SCLC patient treated with three different chemotherapeutics and radiation therapy. Peptide 16 was the most cytotoxic against this cell line (Table 1).
Quantitative assessment of apoptosis was evaluated at low (2 μM) and high (6 μM) peptide concentrations using flow cytometry. A bar-chart (Fig. 6) presents the levels of cells classified into four stages; live cells (AnnV-/SyB-), early apoptotic cells (AnnV+/SyB-), late apoptotic cells (AnnV+/SyB+) and necrotic cells (AnnV-/SyB+). Dot blots are presented in the SD (Fig. S37). […] In contrast, the singly butylated peptide (16) caused highly significant (P < 0.0005) apoptosis in a concentration dependent manner. Even at a low concentration of peptide (2 μM), a small increase (P < 0.05) of early apoptotic cells was observed relative to the control sample.
The experiment was performed according to manufacturer's instructions. Briefly, DMS79 cells were seeded in 12-well plates at a seeding density of 1 × 10^5 cells/well/1980 μl complete medium. Negative control (untreated), peptides at final well concentrations of 2 and 6 μM were prepared and incubated as the above conditions stated in Section 5.1 for 24 h (total volume of wells was 2 ml). The contents of the wells were then carefully transferred into Eppendorf® tubes and centrifuged for 5 min at 500 rpm and the media discarded. Cells pellets were washed with cold PBS. Cells were gently re-suspended in 100 μl annexin-binding buffer followed by the addition of 5 μl of the Annexin V conjugate (Alexa Fluor® 555) and 0.5 μl of dead cell stain (SYTOX® Blue). Tubes were left for 10 min at RT, then 400 μl of annexin-binding buffer were added and samples were analysed on a flow cytometer (BD Biosciences - LSR Fortessa; Diva 8.0.1 software; Annexin V conjugate was excited with 561 nm laser and fluorescence measured using a 586/15 nm bandpass filter; dead cell stain was excited with 405 nm laser and fluorescence measured using 450/50 nm bandpass filter). Assays were repeated three independent times.

H69 and DMS79 cells = system: H69 and DMS79 cells; set-up: method as in PMID 30108771; conditions: range over both cell lines; read-out: IC50 values in the range against H69 and DMS79; cited from earlier work
H69 cells = system: H69 cells; set-up: method as in PMID 30108771; conditions: treatment for 48 h; obtained previously; read-out: IC50 ± SE, H69 Cells; cited from earlier work
DMS79 cells [2] = system: DMS79 cells; set-up: method as in PMID 30108771; conditions: treatment for 48 h; obtained previously; read-out: IC50 ± SE, DMS79 Cells; cited from earlier work

In the case of `CN[C@H](Cc1ccccc1)C(=O)N[C@H](Cc1c[nH]c2ccccc12)C(=O)N[C@@H](Cc1ccccc1)C(=O)N[C@H](Cc1c[nH]c2ccccc12)C(=O)N[C@@H](CC(C)C)C(N)=O` [Peptide 1, DMePhe-DTrp-Phe-DTrp-Leu-NH2] (H-[dNMeF][dW]F[dW]L-NH2; N-terminus assumed), the “% events, early apoptotic cells (AnnV+/SyB-)” value (DMS79 cells [1]; DMS79, 2 μM) is reported as 6.2%, the “% events, late apoptotic cells (AnnV+/SyB+)” value (DMS79 cells [1]; DMS79, 2 μM) is reported as 23.9% and the “% events, live cells (AnnV-/SyB-)” value (DMS79 cells [1]; DMS79, 2 μM) is reported as 67.6%. For the same molecule, the “% events, necrotic cells (AnnV-/SyB+)” value (DMS79 cells [1]; DMS79, 2 μM) was 2.3%, the “% events, early apoptotic cells (AnnV+/SyB-)” value (DMS79 cells [1]; DMS79, 6 μM) was 6.6% and the “% events, late apoptotic cells (AnnV+/SyB+)” value (DMS79 cells [1]; DMS79, 6 μM) was 22.9%. For the same molecule, the “% events, live cells (AnnV-/SyB-)” value (DMS79 cells [1]; DMS79, 6 μM) was 68.3%, the “% events, necrotic cells (AnnV-/SyB+)” value (DMS79 cells [1]; DMS79, 6 μM) was 2.2% and the IC50 (H69 and DMS79 cells) was 23 to 31 µM.
In the case of “[Arg^6,D-Trp^7,9,MePhe^8]SP (6–11) [SPG]”, the IC50 (H69 cells) is listed as greater than 30 µM and the IC50 (DMS79 cells [2]) is listed as greater than 30 µM.
